Measurements published in US20080221253A1, “Lipophilic Properties of 2-Acrylamido-2-Methylpropanesulfonic Acid” (THE LUBRIZOL CORPORATION, priority 2004, published 2008).

Legend:
[1] = Solubility of monomers, mixing 10% of the monomer with a variety of solvents; type: physicochemical; conditions: 10% by weight in solvent
[2] = octanol/water partition, P=Coctanol/Cwater; cited from earlier work

Row | SMILES | Solubility in Butyl Acetate [1] | Solubility in Ethanol [1] | Solubility in Ethyl Acetate [1] | Solubility in Isopropanol [1] | Solubility in Styrene [1] | Solubility in Toluene [1] | Solubility in Water [1] | log P [2]
1 | C=CC(=O)NC(C)(C)CS(=O)(=O)O [Example 7, 2-acrylamido-2-methylpropanesulfonic acid] | insoluble | insoluble | insoluble | not fully soluble | insoluble | insoluble | clear | 
2 | C=CC(=O)NC(C)(C)CS(=O)(=O)O.CCCCCCCCCCCCN(C)C [Example 8, 2-acrylamido-2-methylpropanesulfonic acid/N,N-dimethyl-n-dodecylamine salt] | clear | clear | clear | clear | clear | clear | clear | 
3 | C=CC(=O)NC(C)(C)CS(=O)(=O)O.CCCCC(CC)CN [Example 9, 2-acrylamido-2-methylpropanesulfonic acid/2-ethylhexylamine salt] | trace oil | clear | clear | clear |  |  | clear | 
4 | C=CC(=O)O [acrylic acid] |  |  |  |  |  |  |  | about 0.4
5 | CCc1ccccc1 [ethylbenzene] |  |  |  |  |  |  |  | about 3.1
